{"source": "ChEMBL document CHEMBL3112432", "about": "“Synthesis of 5α-cholestan-6-one derivatives and their inhibitory activities of NO production in activated microglia: discovery of a novel neuroinflammation inhibitor” (Bioorg Med Chem Lett, 2014)"}
{"system": "not listed separately", "assay": "Antiinflammatory activity in LPS-stimulated mouse BV2 cells assessed as inhibition of NO production at 40 uM after 24 hrs by Griess method relative to control", "type": "functional", "settings": "BV-2, 24 h", "units": {"inhibition at 40 µM": "%"}}
{"smiles": "C[C@H]([C@H](O)CO)[C@H]1CC[C@H]2[C@@H]3CC(=O)[C@H]4C[C@H](O)CC[C@]4(C)[C@H]3CC[C@]12C", "inhibition at 40 µM": 60.4}
{"smiles": "C=C[C@@H](C)[C@H]1CC[C@H]2[C@@H]3[C@H](F)C(=O)[C@H]4C[C@H](O)[C@@H](F)C[C@]4(C)[C@H]3CC[C@]12C", "inhibition at 40 µM": 63.8}
{"smiles": "COC(=O)CC[C@@H](C)[C@H]1CC[C@H]2[C@@H]3CC(=O)[C@H]4C[C@@H](O)CC[C@]4(C)[C@H]3CC[C@]12C", "inhibition at 40 µM": 18.1}
{"smiles": "C[C@H]([C@H](O)CO)[C@H]1CC[C@H]2[C@@H]3[C@H](O)C(=O)[C@H]4C[C@@H](F)CC[C@]4(C)[C@H]3CC[C@]12C", "inhibition at 40 µM": 91.9}
{"smiles": "C=C[C@@H](C)[C@H]1CC[C@H]2[C@@H]3[C@H](O)C(=O)[C@H]4C[C@H](O)[C@@H](F)C[C@]4(C)[C@H]3CC[C@]12C", "inhibition at 40 µM": 92.7}
{"smiles": "COC(=O)CC[C@@H](C)[C@H]1CC[C@H]2[C@@H]3CC(=O)[C@H]4C[C@H](O)[C@@H](Br)C[C@]4(C)[C@H]3CC[C@]12C", "inhibition at 40 µM": 42.7}
{"smiles": "COC(=O)CC[C@@H](C)[C@H]1CC[C@H]2[C@@H]3CC(=O)[C@H]4C[C@H](O)[C@@H](O)C[C@]4(C)[C@H]3CC[C@]12C", "inhibition at 40 µM": 44.9}
{"smiles": "C[C@H]([C@H](O)CO)[C@H]1CC[C@H]2[C@@H]3[C@H](F)C(=O)[C@H]4C[C@H](O)CC[C@]4(C)[C@H]3CC[C@]12C", "inhibition at 40 µM": 68.1}
{"smiles": "COC(=O)CC[C@@H](C)[C@H]1CC[C@H]2[C@@H]3CC(=O)[C@H]4C[C@@H](F)CC[C@]4(C)[C@H]3CC[C@]12C", "inhibition at 40 µM": 43.5}
{"smiles": "COC(=O)CC[C@@H](C)[C@H]1CC[C@H]2[C@@H]3[C@H](O)C(=O)[C@H]4C[C@@H](O)CC[C@]4(C)[C@H]3CC[C@]12C", "inhibition at 40 µM": 71.1}
{"smiles": "COC(=O)CC[C@@H](C)[C@H]1CC[C@H]2[C@@H]3[C@H](F)C(=O)[C@H]4C[C@H](O)CC[C@]4(C)[C@H]3CC[C@]12C", "inhibition at 40 µM": 47.2}
{"smiles": "COC(=O)CC[C@@H](C)[C@H]1CC[C@H]2[C@@H]3[C@H](F)C(=O)[C@H]4C[C@H](O)[C@@H](O)C[C@]4(C)[C@H]3CC[C@]12C", "inhibition at 40 µM": 68.1}
{"smiles": "C[C@]12CC[C@H](O)CC1=CC[C@@H]1[C@@H]2CC[C@]2(C)C(=O)CC[C@@H]12", "note": "[PRASTERONE]", "inhibition at 40 µM": 55.3}
{"smiles": "C=C[C@@H](C)[C@H]1CC[C@H]2[C@@H]3[C@H](O)C(=O)[C@H]4C[C@H](O)CC[C@]4(C)[C@H]3CC[C@]12C", "inhibition at 40 µM": 69.6}
{"smiles": "C[C@H]([C@H](O)CO)[C@H]1CC[C@H]2[C@@H]3CC(=O)[C@H]4C[C@H](O)[C@H](O)C[C@]4(C)[C@H]3CC[C@]12C", "inhibition at 40 µM": 22.6}
{"smiles": "COC(=O)CC[C@@H](C)[C@H]1CC[C@H]2[C@@H]3CC(=O)[C@H]4C[C@H](O)CC[C@]4(C)[C@H]3CC[C@]12C", "inhibition at 40 µM": 39.4}
{"smiles": "COC(=O)CC[C@@H](C)[C@H]1CC[C@H]2[C@@H]3CC(=O)[C@H]4CC(=O)CC[C@]4(C)[C@H]3CC[C@]12C", "inhibition at 40 µM": 48.2}
{"smiles": "COC(=O)CC[C@@H](C)[C@H]1CC[C@H]2[C@@H]3CC(=O)[C@H]4C[C@@H]5O[C@@H]5C[C@]4(C)[C@H]3CC[C@]12C", "inhibition at 40 µM": 48.6}
{"system": "not listed separately", "assay": "Cytotoxicity against mouse BV2 cells assessed as cell viability at 40 uM after 24 hrs by MTT assay relative to control", "type": "cell-based, BV-2", "settings": "read-out: Activity", "units": {"viability at 24 h, 40 µM": "%"}}
{"smiles": "C[C@H]([C@H](O)CO)[C@H]1CC[C@H]2[C@@H]3CC(=O)[C@H]4C[C@H](O)CC[C@]4(C)[C@H]3CC[C@]12C", "viability at 24 h, 40 µM": 95.9}
{"smiles": "C=C[C@@H](C)[C@H]1CC[C@H]2[C@@H]3[C@H](F)C(=O)[C@H]4C[C@H](O)[C@@H](F)C[C@]4(C)[C@H]3CC[C@]12C", "viability at 24 h, 40 µM": 86.8}
{"smiles": "COC(=O)CC[C@@H](C)[C@H]1CC[C@H]2[C@@H]3CC(=O)[C@H]4C[C@@H](O)CC[C@]4(C)[C@H]3CC[C@]12C", "viability at 24 h, 40 µM": 27.8}
{"smiles": "C[C@H]([C@H](O)CO)[C@H]1CC[C@H]2[C@@H]3[C@H](O)C(=O)[C@H]4C[C@@H](F)CC[C@]4(C)[C@H]3CC[C@]12C", "viability at 24 h, 40 µM": 78.6}
{"smiles": "C=C[C@@H](C)[C@H]1CC[C@H]2[C@@H]3[C@H](O)C(=O)[C@H]4C[C@H](O)[C@@H](F)C[C@]4(C)[C@H]3CC[C@]12C", "viability at 24 h, 40 µM": 55.9}
{"smiles": "COC(=O)CC[C@@H](C)[C@H]1CC[C@H]2[C@@H]3CC(=O)[C@H]4C[C@H](O)[C@@H](Br)C[C@]4(C)[C@H]3CC[C@]12C", "viability at 24 h, 40 µM": 91.4}
{"smiles": "COC(=O)CC[C@@H](C)[C@H]1CC[C@H]2[C@@H]3CC(=O)[C@H]4C[C@H](O)[C@@H](O)C[C@]4(C)[C@H]3CC[C@]12C", "viability at 24 h, 40 µM": 79.5}
{"smiles": "C[C@H]([C@H](O)CO)[C@H]1CC[C@H]2[C@@H]3[C@H](F)C(=O)[C@H]4C[C@H](O)CC[C@]4(C)[C@H]3CC[C@]12C", "viability at 24 h, 40 µM": 95.1}
{"smiles": "COC(=O)CC[C@@H](C)[C@H]1CC[C@H]2[C@@H]3CC(=O)[C@H]4C[C@@H](F)CC[C@]4(C)[C@H]3CC[C@]12C", "viability at 24 h, 40 µM": 84.1}
{"smiles": "COC(=O)CC[C@@H](C)[C@H]1CC[C@H]2[C@@H]3[C@H](O)C(=O)[C@H]4C[C@@H](O)CC[C@]4(C)[C@H]3CC[C@]12C", "viability at 24 h, 40 µM": 96.3}
{"smiles": "COC(=O)CC[C@@H](C)[C@H]1CC[C@H]2[C@@H]3[C@H](F)C(=O)[C@H]4C[C@H](O)CC[C@]4(C)[C@H]3CC[C@]12C", "viability at 24 h, 40 µM": 73.7}
{"smiles": "COC(=O)CC[C@@H](C)[C@H]1CC[C@H]2[C@@H]3[C@H](F)C(=O)[C@H]4C[C@H](O)[C@@H](O)C[C@]4(C)[C@H]3CC[C@]12C", "viability at 24 h, 40 µM": 50.8}
{"smiles": "C[C@]12CC[C@H](O)CC1=CC[C@@H]1[C@@H]2CC[C@]2(C)C(=O)CC[C@@H]12", "note": "[PRASTERONE]", "viability at 24 h, 40 µM": 99.1}
{"smiles": "C=C[C@@H](C)[C@H]1CC[C@H]2[C@@H]3[C@H](O)C(=O)[C@H]4C[C@H](O)CC[C@]4(C)[C@H]3CC[C@]12C", "viability at 24 h, 40 µM": 76.6}
{"smiles": "C[C@H]([C@H](O)CO)[C@H]1CC[C@H]2[C@@H]3CC(=O)[C@H]4C[C@H](O)[C@H](O)C[C@]4(C)[C@H]3CC[C@]12C", "viability at 24 h, 40 µM": 94}
{"smiles": "COC(=O)CC[C@@H](C)[C@H]1CC[C@H]2[C@@H]3CC(=O)[C@H]4C[C@H](O)CC[C@]4(C)[C@H]3CC[C@]12C", "viability at 24 h, 40 µM": 87.7}
{"smiles": "COC(=O)CC[C@@H](C)[C@H]1CC[C@H]2[C@@H]3CC(=O)[C@H]4CC(=O)CC[C@]4(C)[C@H]3CC[C@]12C", "viability at 24 h, 40 µM": 78}
{"smiles": "COC(=O)CC[C@@H](C)[C@H]1CC[C@H]2[C@@H]3CC(=O)[C@H]4C[C@@H]5O[C@@H]5C[C@]4(C)[C@H]3CC[C@]12C", "viability at 24 h, 40 µM": 99.5}
{"system": "BV-2", "assay": "Antiinflammatory activity in LPS-stimulated mouse BV2 cells assessed as inhibition of NO production after 24 hrs by Griess method", "type": "functional, cell-based", "settings": "not given"}
{"smiles": "C[C@H]([C@H](O)CO)[C@H]1CC[C@H]2[C@@H]3CC(=O)[C@H]4C[C@H](O)CC[C@]4(C)[C@H]3CC[C@]12C", "inhibition": "Dose-dependent effect"}
{"smiles": "C[C@H]([C@H](O)CO)[C@H]1CC[C@H]2[C@@H]3[C@H](F)C(=O)[C@H]4C[C@H](O)CC[C@]4(C)[C@H]3CC[C@]12C", "inhibition": "Dose-dependent effect"}
{"smiles": "COC(=O)CC[C@@H](C)[C@H]1CC[C@H]2[C@@H]3[C@H](O)C(=O)[C@H]4C[C@@H](O)CC[C@]4(C)[C@H]3CC[C@]12C", "inhibition": "Dose-dependent effect"}
